Legend:
[1] = biological target: T1, human α1 GlyR (Homo sapiens, UniProt P23415); assay: Whole-cell patch clamp, modulation of α1 GlyR-regulated ion channel currents; assay type: cell-based; details: HEK293 cells stably expressing human α1 GlyR; EC2 glycine (1 μM); holding potential −40 mV; room temperature
T1 construct: expressed in transfected cells
T1 sequence (P23415 29-457): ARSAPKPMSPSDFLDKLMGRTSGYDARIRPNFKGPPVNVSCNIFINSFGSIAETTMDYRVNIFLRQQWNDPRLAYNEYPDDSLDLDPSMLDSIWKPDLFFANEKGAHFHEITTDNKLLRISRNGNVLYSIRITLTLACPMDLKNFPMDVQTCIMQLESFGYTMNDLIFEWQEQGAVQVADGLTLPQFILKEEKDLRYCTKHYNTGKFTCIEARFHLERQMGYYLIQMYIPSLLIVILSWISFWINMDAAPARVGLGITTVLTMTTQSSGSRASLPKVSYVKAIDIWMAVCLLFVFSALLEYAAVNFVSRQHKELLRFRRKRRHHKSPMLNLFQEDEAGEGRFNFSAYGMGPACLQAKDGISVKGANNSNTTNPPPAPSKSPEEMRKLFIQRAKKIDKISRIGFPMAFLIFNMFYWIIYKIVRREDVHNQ
Protocol: (§1) Currents were recorded by whole-cell patch clamp on HEK293 cells that stably expressed either the human α1 or α3 GlyRs. Cells were cultured on glass coverslips and placed into the recording chamber which was perfused by the standard extracellular solution containing (in mM): 140 NaCl, 5 KCl, 2 CaCl2), 1 MgCl2, 10 HEPES/NaOH and 10 glucose (pH 7.4 adjusted with NaOH). For HEK293 cell recordings we employed an intracellular solution consisting of (mM): 145 CsCl, 2 CaCl2), 2 MgCl2, 10 HEPES and 10 EGTA (pH 7.4 adjusted with CsOH; osmolarity 290 mOsm). HEK293 cell recordings were performed at a holding potential of −40 mV. Solutions were applied to cells via gravity induced perfusion via parallel microtubules under micromanipulator control with a solution exchange time of <250 ms. Experiments were conducted at room temperature (20-22° C.). Due to the irreversible nature of the drug actions, only one cell was tested per coverslip.
(§2) Patch pipettes were fabricated from borosilicate hematocrit tubing (Hirschmann Laborgerate, Eberstadt, Germany) and heat polished. Pipettes had tip resistances of […]. Membrane currents were recorded using an Axopatch 200B amplifier and a Digidata 1440 analog-to-digital converter under control of pClamp10 software (Molecular Devices). Currents were filtered at 500 Hz and digitized at 2 KHz.
(§3) After a stable whole cell recording was obtained, EC2 and saturating glycine concentrations activated currents with the anticipated magnitudes were verified. At al and α3 GlyRs, EC2 current magnitudes generally required glycine concentrations of 1 and 80 μM, respectively. The saturating concentration was invariably 2 mM. The standard experimental protocol involved EC2 glycine application for […] every 1 minute. When glycine was not being applied, the cells were continually and directly exposed to flowing drug solution. After 5 minutes of alternate applications of drug and EC2 glycine, 2 mM glycine was briefly applied every 2 minutes. Regular applications of saturating glycine after the 5 minute time point tended to enhance the drug-induced current magnitude effect further.
(§4) The effects of cannabinoid derivatives on al GlyR and α3 GlyR-regulated ion channel currents, as assessed by the patch clamp method, are indicated in Table 6.

[2] = rodents; systemic and intrathecal administration; cited from earlier work
[3] = biological target: T2, human α3 GlyR (Homo sapiens, UniProt O75311); assay: Whole-cell patch clamp, modulation of α3 GlyR-regulated ion channel currents; assay type: cell-based; details: for A3 GlyR (fold increase): HEK293 cells stably expressing human α3 GlyR, EC2 glycine (80 μM), holding potential −40 mV, room temperature
T2 construct: expressed in transfected cells
T2 sequence (O75311 34-464): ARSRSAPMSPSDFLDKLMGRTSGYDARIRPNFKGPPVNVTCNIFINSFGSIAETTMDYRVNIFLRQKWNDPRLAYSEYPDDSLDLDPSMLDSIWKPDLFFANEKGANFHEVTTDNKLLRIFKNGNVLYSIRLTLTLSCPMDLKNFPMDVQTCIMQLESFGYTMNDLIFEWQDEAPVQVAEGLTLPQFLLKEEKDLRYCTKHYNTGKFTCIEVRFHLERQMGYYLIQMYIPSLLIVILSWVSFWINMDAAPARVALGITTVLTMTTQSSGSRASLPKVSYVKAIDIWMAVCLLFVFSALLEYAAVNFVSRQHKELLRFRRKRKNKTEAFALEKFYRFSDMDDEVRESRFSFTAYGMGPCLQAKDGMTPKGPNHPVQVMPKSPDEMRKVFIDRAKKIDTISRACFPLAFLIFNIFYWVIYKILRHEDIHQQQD
Protocol: as §1, §2, §3, §4

[4] = tested on: hippocampal neurons; details: cited from earlier work
[5] = tested on: presynaptic GlyR; details: brainstem and spinal cord of hyperekplexic mutant mice; cited from earlier work

Compound | α1 GlyR (fold increase) [1] | A3 GlyR (fold increase) [3] | also measured
7-OH-Desoxy-CBD [Compound 119] | no effect |  | 
C=C(C)[C@@H]1CCC(C)=C[C@H]1c1c(O)cc(CCCCC)cc1O [CBD, cannabidiol] |  |  | Analgesic tolerance [2]: without causing apparent analgesic tolerance; Suppression of chronic inflammatory and neuropathic pain [2]: significantly suppresses chronic inflammatory and neuropathic pain
C=C(C)C1CCC(C)=CC1c1ccc(C(C)(C)CCCCCC)cc1O (stereo not drawn) [Compound 101, 1,1-dimethylheptyl desoxy CBD] | 13 fold | 5 fold | 
C=C(C)C1CCC(C)=CC1c1ccc(C(C)C(C)CCCCC)cc1O (stereo not drawn) [Compound 102, 1,2-dimethylheptyl-desoxy CBD] | no effect | 18 fold | Selectivity α3 GlyR versus α1 GlyR ([3]; comparison of patch clamp effects on α1 and α3 GlyR): highly selective towards α3 GlyR
C=C(C)C1CCC(C)=CC1c1ccc(C(C)(C)CCC)cc1O (stereo not drawn) [Compound 103, 1,1-dimethylbutyl desoxy CBD] | 4 fold | 10 fold | 
CCCCCCC(C)(C)c1ccc2c(c1)OC(C)(C)C1CCC(C)=CC21 (stereo not drawn) [Compound 148, 1,1-DMH-desoxy THC] | 4.2 fold | 4 fold | 
C=C(C)[C@@H]1CCC(C)=C[C@H]1c1c(O)cc(CC2CN(C(C)=O)C2)cc1O [KLS-13019] |  |  | Potency relative to CBD ([4]; more potent than CBD): 50 fold; Safety relative to CBD ([4]; safer than CBD): > 400 fold
C=C(C)[C@@H]1CCC(C)=C[C@H]1c1ccc(CCCCC)cc1O [desoxy-CBD, dehydroxylcannabidiol] | 26.7 fold | 4.6 fold | Rescue of impaired presynaptic GlyR activity and diminished glycine release [5]: selectively rescues impaired presynaptic GlyR activity and diminished glycine release; Analgesic tolerance [2]: without causing apparent analgesic tolerance; Suppression of chronic inflammatory and neuropathic pain [2]: significantly suppresses chronic inflammatory and neuropathic pain
CCCCCc1ccc2c(c1)OC(C)(C)C1CCC(C)=CC21 (stereo not drawn) [desoxy-THC] | 11.2 fold | 4.7 fold | 

— US20210009549A1, “CANNABINOID DERIVATIVES AND CONJUGATES AND USES THEREOF” ([…] LTD., priority 2018, published 2021)
